Measurements taken from patent EP0180416A2, “Benzoic acid analogues and their production” (Takeda Chemical Industries, Ltd., priority 1984, dated 1986).
Structures can show the parent of a compound that is named as a salt.

What was measured:
[1] = tested on: synthetic leukotriene D4 (LTD4); test: Bronchoconstriction due to LTD4 in guinea pigs (Konzett-Rossler method); assay type: in vivo, Guinea pigs of Hartley strain; conditions: Cavia porcellus, 1 h; 50% inhibitory dose; oral, one hour before LTD4 (10 ug/kg i.v.); inhibition of overflow volume at maximal response; anesthetized guinea pigs; read-out: ID50(p.o.)
Description: Guinea pigs of Hartley strain, both male and female, with body weights about 400 g were assigned to groups of 6 to 10 individuals, and the bronchoconstriction due to LTD4 was measured according to the method of Konzett-Rossler [Konzett, H. and ROssler, R.: Naunyn-Schmiedebergs Archiv far Experimentelle Pathologie und Pharmakologie 195, 71-74 (1940)]. Each guinea pig was fixed in a supine position under urethane anesthesia (1.5 g/kg, intraperitoneal) and the trachea was incised and connected to an artificial respiration apparatus, Rodent Respirator Model 680 [Harvard Apparatus Company, U.S.A.] via a cannula. The branch tube of this tracheal cannula was connected to a Bronchospasm Transducer Model 7020 [Ugobasil Biological Researach Apparatus, Italy]. Under the conditions of 4 to 7 ml of air per stroke, 70 strokes per minute and a lung loading pressure of 10 cm H2O, the volume of overflowing air was recorded on a Rectigraph-8S (Sanei Sokki Ltd., Japan) via a transducer. After administration of gallamine·triethiodide (1 mg/kg, i.v.), a solution of LTD4 in physiological saline (10 ug/kg) was intravenously administered and the bronchoconstriction elicited thereby was recorded for 15 minutes. The compound was used as suspended in a 5% solution of gum arabic or dissolved in water, and administered orally in a volume of 0.2 ml per 100 g body weight one hour before LTD4 loading. LTD4 was administered through a cannula inserted into the jugular vein. LTD4 was used as dissolved in physiological saline, which was taken from a stock stored in methanol (1 mg/l mℓ methanol) at -70°C.

[2] = tested on: mice; test: Acute toxicity in mice; assay type: in vivo, mice of Jcl:ICR strain; conditions: 2000 mg/kg, male mice; for symptoms after oral administration (acute toxicity): suspended in 5% gum arabic; for autopsy findings: oral, autopsy after 7 days
Description: Five 5-week-old male mice of Jcl:ICR strain, weighing about 30 g each, were used. Compound (I)-2 or (I)-4 was suspended in a 5% solution of gum arabic and administered orally at the level of 0.2 ml per 10 grams body weight.

Structure (SMILES)	ED50 [1]	symptoms after oral administration (acute toxicity) [2]	autopsy findings [2]
CCCc1c(OCCCOc2ccc(C(=O)OCCN(C)C)cc2Br)ccc(C(C)=O)c1O [(I)-1, 2-(N,N-dimethylamino)ethyl 4-[3-(4-acetyl-3-hydroxy-2-propylphenoxy)propoxy]-3-bromobenzoate·hydrochloride·monohydrate]	49 µmol/kg	–	–
CCCc1c(OCCCOc2ccc(C(=O)OCCN3CCOCC3)cc2Br)ccc(C(C)=O)c1O [(I)-2, 2-morpholinoethyl 4-[3-(4-acetyl-3-hydroxy-2-propylphenoxy)propoxy]-3-bromobenzoate]	41 µmol/kg	no symptoms	did not reveal any abnormalities
CCCc1c(OCCCOc2ccc(C(=O)OCCN3CCN(C)CC3)cc2Br)ccc(C(C)=O)c1O [(I)-3, 2-(4-methyl-l-piperazinyl)ethyl 4-[3-(4-acetyl-3-hydroxy-2-propylphenoxy)propoxy]-3-bromobenzoate· dihydrochloride·monohydrate]	49 µmol/kg	–	–
CCCc1c(OCCCOc2ccc(C(=O)OCCCN(C)C)cc2Br)ccc(C(C)=O)c1O [(I)-4, 3-(N,N-dimethylamino)propyl 4-[3-(4-acetyl-3-hydroxy-2-propylphenoxy)propoxy]-3-bromobenzoate]	52 µmol/kg	no symptoms	did not reveal any abnormalities
CCCc1c(OCCCOc2ccc(C(=O)O)cc2Br)ccc(C(C)=O)c1O [Control compound (A), 4-[3-(4-acetyl-3-hydroxy-2-propylphenoxy)propoxy]-3-bromobenzoic acid, reference compound]	146 µmol/kg	–	–
